Tests used:
[1] = system: radioresistant (HCC95, HCC1195 and HCC2279) NSCLC cell lines; assay: Clonogenic survival with IR, radioresistant NSCLC lines; assay type: cell-based, Human; details: all radioresistant NSCLC lines tested
Protocol: (§1) Cells were serially diluted to appropriate concentrations and plated into 60-mm dish in triplicate for 4 h. Then cells were treated with the indicated drugs, and irradiated 4 hours later with graded doses of radiation for concurrent treatment or irradiated and 4 hours later the drugs added for post-treatment. All cells were irradiated at room temperature in ambient air using a 137Cs source (Mark 1-68 irradiator, JL Shepherd & Associated). Surviving colonies were stained with crystal violet approximately 10 to 14 days later and colonies formed with more than 50 cells were counted. Clonogenic fraction of irradiated cells was normalized to the plating efficiency of unirradiated controls. The data are presented as the mean±SD. The curve S=e^−(αD+βD2) was fitted to the experimental data using a least square fit algorithm using the program Sigma Plot 11.0 (Systat Software, Inc.).

[2] = system: radiosensitive (HCC1719, H23, H1650, H1395 and H2228) NSCLC cell lines; assay: Clonogenic survival with IR, radiosensitive NSCLC lines; assay type: cell-based, Human
Protocol: as §1

[3] = system: H1299 NSCLC xenografts; assay: Tumor growth delay with JIB-04 and IR, H1299 xenografts; assay type: in vivo, mice; details: JIB-04 50 mg/kg oral gavage, IR 2 Gy 4 h after drug, every other day, 12 doses
Protocol: H1299 NSCLC cells were injected subcutaneously (5×10^6 cells in 100 μL) into the right posterior leg of female athymic nude mice (nu/nu, 5-6 weeks old). Treatment was initiated when the subcutaneous tumors reached an average size of 150 to 200 mm^3. Mice were treated with JIB-04 (50 mg/kg/day) by oral gavage or with vehicle (12.5% Cremophor EL, 12.5% DMSO as an aqueous suspension) as control; radiation was administered 4 hours after treatment. The treatment regimen consisted of a total of 12 doses of drug and/or ionizing radiation given every other day. Tumor growth delay and the dose enhancement factor were then determined. Body weight and general health were monitored every other day during the drug-treatment period and afterward. Standard survival criteria was applied to ensure animals including severe lethargy, 20% weight loss, tumor burden >2,000 mm^3 and difficulty breathing. Survival data was analyzed using GraphPad Prism software.

[4] = system: HR repair in U2OS cells; assay: GFP HR reporter assay, U2OS cells; assay type: cell-based
Protocol: FIGS. 29A-29B. […] FIG. 29A: U2OS cells were transfected with the NHEJ or HR constructs (0.25 ug and 0.5 ug respectively) and a pN1-mCherry plasmid (0.05 ug). Then cells were seeded in the presence or absence of JIB-04. Cells were analyzed by flow cytometry for GFP expression 12 h and 24 h after transfection using green-versus-red fluorescent plot. 10,000 cells were analyzed in each sample and NHEJ or HR Repair Frequency (% GFP+ cells/% mCherry+ cells) plotted. Average+/−SEM of triplicates for one of two representative experiments is shown. ***p<0.001 vs control (Kruskal-Wallis). FIG. 29B: Representative FACS traces for the analysis of NHEJ and HR shown in A.

[5] = system: cell cycle distribution; assay: Cell cycle analysis (PI staining); assay type: cell-based, Human; details: H1299 and A549; JIB-04 4 h with or without IR (2 Gy)
Protocol: NSCLCs were seeded in 6 wells plate, 24 h latter cells were pretreated with JIB-04 or DMSO for 4 h and exposed to a total dose of 2 Gy. Then cells were collected and fixed using 75% ethanol at […] for at least 24 hours. The cells were resuspended with PBS and incubated with 20 μl 1 mg/ml RNase A (Sigma) and 25 μg ml/ml propidium iodide (Sigma) for 30 min at room temperature. Experiment was done by triplicate, 20,000 cells were counted and the proportion of cells of different phase was analyzed using the software Flowjo.

[6] = system: DNA-PKcs; assay: DNA-PKcs p-T2609 foci kinetics after IR; assay type: cell-based, Human; details: H1299; JIB-04 16 nM 4 h, 10 Gy
Protocol: NSCLCs were seeded onto Lab-Tek II Chamber Slides (Thermo Fisher) and 24 hours later pretreated with JIB-04 or DMSO for 4 h. Then cells were exposed to a total dose of 2 Gy (γH2AX and 53BP1) or 10 Gy (RAD-51 and DNAPKcs p-T2609) radiation. For knockdown and overexpression experiments H1299 cells were transfected using the Amaxa Nucleofector; program X-005. Specifically, 3×10^6 were transfected with siRNA duplexes targeting JMJD2A, JMJD2B, Jarid1A, Jarid1b, scrambled siRNA (250 nM final concentration) or expression vectors pCMVHA-JMJD2A, pCMVHA-JMJD2B, pCMVHA-Jarid1A, pCMVHA-Jarid1B, PC-2 for 72 hours, followed by quantification of expression or irradiation. Then, cells were fixed in 4% formaldehyde/PBS for 15 min, permeabilized with 0.5% Triton X-100 for 15 min on ice, and blocked with 5% bovine serum albumin in PBS for 1 h. The slides were incubated with an antibody against phospho-Histone γH2AX (1:1000, 3 h at room temperature), 53BP1 (1:500, 3 h at room temperature), Rad-51 (1:500, 48 hs 4° C.) or DNAPKcs p-T2609 (1:500, 48 hs 4° C.). Alexa Fluor 488-conjugated goat anti-Rabbit, […] goat anti-mouse or rhodamine red-conjugated goat anti-mouse secondaries antibodies were used (1:1000, 1 h at room temperature). […] Cells were analyzed on a Zeiss upright fluorescent microscope.

[7] = system: H3K9me3 demethylases; assay: Histone demethylase activity in H1299 cellular extracts (H3K9me3); assay type: cell-based, Human; details: JIB-04 4 h, no IR
Protocol: For Histone demethylase activity determination 2×10^6 H1299 cells were seeded in P150 plates. After 24 h cells were pretreated with JIB-04 or DMSO for 4 h, irradiated with a total dose of 8 Gy of radiation. Then cells were sonicated (3×4 sec) and equal amounts of protein were incubated with a histone H3K4me3 or H3K9me3 substrate in a reaction buffer containing cofactors for 1 h at 37° C. Finally specific immune-detection of the H3K4me2 or H3K9me2 product using the Epigentek kit P-3081 for H3K9me3 demethylation and P-3083 for H3K4me3 demethylation. Background readings were given by heat inactivated extracts.

## Clc1ccc(N/N=C(\c2ccccc2)c2ccccn2)nc1 [JIB-04]
[1]
  survival fraction at 2 Gy of radiation (SF2): decreasing the survival fraction at 2 Gy of radiation (SF2)
[2]
  survival fraction at 2 Gy of radiation (SF2): not affecting already radiosensitive lines
[3]
  survival of tumor bearing mice, JIB-04 with IR: survived significantly longer
  tumor growth, JIB-04 with IR: synergistic robust inhibition of tumor growth
[4]
  HR repair: inhibits HR repair
[5]
  cell cycle distribution: do not Affect Cell Cycle Distribution
[6]
  DNA-PKcs foci resolution: majority of DNA-PKcs foci remained unresolved even 24 h post irradiation
  DNA-PKcs recruitment to DSBs: robust deficiency in DNA-PKcs recruitment with foci not forming until 6 h post IR
[7]
  basal H3K9me3 demethylase activity: did not have any effects on basal activity

From US11497740B2, “Use of Jumonji C demethylase inhibitors for the treatment and prevention of chemotherapy resistance and radioresistance in cancer” (THE BOARD OF REGENTS OF THE UNIVERSITY OF TEXAS SYSTEM, priority 2016, dated 2022)
